# From patent US12570642B2, “GLP-IR modulating compounds” (Gilead Sciences, Inc., priority 2021, dated 2026)
# Target: GLP-1R (Homo sapiens, UniProt P43220)
# Experiment: GLP-1R Activation - cAMP Assay
# Type: cell-based
# Conditions: cAMP increase in CHO cells stably expressing GLP-1R; each compound run on one of the two cAMP assays (Assay 1 or Assay 2, not specified)
# Procedure, shortened: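 cAMP rise read by HTRF after 30 min agonist exposure (10-point titration, 37 °C) in HBSS/20 mM Hepes/0.1% BSA, following 1 h pre-incubation. Cells: stable GLP-1R CHO line, 1,000/well, seeded overnight. Sigmoidal fit of response vs log concentration gives EC50.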
# GLP-1R, sequence (P43220 24-463): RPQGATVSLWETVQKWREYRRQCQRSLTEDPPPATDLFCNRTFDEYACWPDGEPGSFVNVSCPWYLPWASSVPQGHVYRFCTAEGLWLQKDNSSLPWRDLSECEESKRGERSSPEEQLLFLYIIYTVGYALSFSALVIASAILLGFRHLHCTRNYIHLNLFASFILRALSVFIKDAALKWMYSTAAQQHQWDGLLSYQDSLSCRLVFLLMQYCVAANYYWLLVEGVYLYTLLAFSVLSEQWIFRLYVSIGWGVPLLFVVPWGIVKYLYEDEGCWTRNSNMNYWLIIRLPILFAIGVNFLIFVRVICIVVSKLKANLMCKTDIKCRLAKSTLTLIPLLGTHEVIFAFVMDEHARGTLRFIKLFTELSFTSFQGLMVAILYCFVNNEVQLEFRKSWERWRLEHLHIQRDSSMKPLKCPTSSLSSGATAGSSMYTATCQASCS
row,Compound,EC50 [nM]
1,"Cc1ccc(COc2cccc(-c3cc(F)c(Cc4nc5ccc(C(=O)O)cc5n4[C@@H]4COCC4(C)C)cc3F)n2)c(F)c1 [Example 463, (S)-2-(2,5-difluoro-4-(6-((2-fluoro-4-methylbenzyl)oxy)pyridin-2-yl)benzyl)-1-(4,4-dimethyltetrahydrofuran-3-yl)-1H-benzo[d]imidazole-6-carboxylic acid]",0.209
2,"CC1(C)COC[C@H]1n1c(Cc2cc(F)c(-c3cccc(OCc4ccc(F)cc4Cl)n3)cc2F)nc2ccc(C(=O)O)cc21 [Example 464, (S)-2-(4-(6-((2-chloro-4-fluorobenzyl)oxy)pyridin-2-yl)-2,5-difluorobenzyl)-1-(4,4-dimethyltetrahydrofuran-3-yl)-1H-benzo[d]imidazole-6-carboxylic acid]",0.172
3,"Cc1cc(F)ccc1COc1cccc(-c2cc(F)c(Cc3nc4ccc(C(=O)O)cc4n3[C@@H]3COCC3(C)C)cc2F)n1 [Example 465, (S)-2-(2,5-difluoro-4-(6-((4-fluoro-2-methylbenzyl)oxy)pyridin-2-yl)benzyl)-1-(4,4-dimethyltetrahydrofuran-3-yl)-1H-benzo[d]imidazole-6-carboxylic acid]",0.18
4,"CC1(C)COC[C@H]1n1c(Cc2cc(F)c(-c3cccc(OCc4ccc(F)cc4F)n3)cc2F)nc2ccc(C(=O)O)cc21 [Example 466, (S)-2-(4-(6-((2,4-difluorobenzyl)oxy)pyridin-2-yl)-2,5-difluorobenzyl)-1-(4,4-dimethyltetrahydrofuran-3-yl)-1H-benzo[d]imidazole-6-carboxylic acid]",0.124
5,"COC[C@H]1COC[C@H]1n1c(Cc2cc(F)c(-c3ccc(F)c(OCc4ccc(C#N)cc4)n3)cc2F)nc2ccc(C(=O)O)cc21 [Example 467, 2-(4-(6-((4-cyanobenzyl)oxy)-5-fluoropyridin-2-yl)-2,5-difluorobenzyl)-1-((3S,4S)-4-(methoxymethyl)tetrahydrofuran-3-yl)-1H-benzo[d]imidazole-6-carboxylic acid]",0.077
6,"COC[C@H]1COC[C@H]1n1c(Cc2cc(F)c(-c3cccc(OCc4ccc(C#N)cc4)n3)cc2F)nc2ccc(C(=O)O)cc21 [Example 468, 2-(4-(6-((4-cyanobenzyl)oxy)pyridin-2-yl)-2,5-difluorobenzyl)-1-((3S,4S)-4-(methoxymethyl)tetrahydrofuran-3-yl)-1H-benzo[d]imidazole-6-carboxylic acid]",0.118
7,"CC1(C)COC[C@H]1n1c(Cc2cc(F)c(-c3cccc(OCc4ccc(Cl)cc4C(F)(F)F)n3)cc2F)nc2ccc(C(=O)O)cc21 [Example 469, (S)-2-(4-(6-((4-chloro-2-(trifluoromethyl)benzyl)oxy)pyridin-2-yl)-2,5-difluorobenzyl)-1-(4,4-dimethyltetrahydrofuran-3-yl)-1H-benzo[d]imidazole-6-carboxylic acid]",1.6
8,"CC1(C)COC[C@H]1n1c(Cc2cc(F)c(-c3cccc(OCc4ccc(C(F)(F)F)nn4)n3)cc2F)nc2ccc(C(=O)O)cc21 [Example 470, (S)-2-(2,5-difluoro-4-(6-((6-(trifluoromethyl)pyridazin-3-yl)methoxy)pyridin-2-yl)benzyl)-1-(4,4-dimethyltetrahydrofuran-3-yl)-1H-benzo[d]imidazole-6-carboxylic acid]",1.61
9,"C[C@H]1COC[C@H]1n1c(Cc2cc(F)c(-c3ccc(F)c(OCc4ccc(Cl)cc4F)n3)cc2F)nc2ccc(C(=O)O)cc21 [Example 471, 2-(4-(6-((4-chloro-2-fluorobenzyl)oxy)-5-fluoropyridin-2-yl)-2,5-difluorobenzyl)-1-((3S,4R)-4-methyltetrahydrofuran-3-yl)-1H-benzo[d]imidazole-6-carboxylic acid]",0.041
10,"C[C@H]1COC[C@H]1n1c(Cc2cc(F)c(-c3cccc(OCc4ccc(Cl)cc4F)n3)cc2F)nc2ccc(C(=O)O)cc21 [Example 472, 2-(4-(6-((4-chloro-2-fluorobenzyl)oxy)pyridin-2-yl)-2,5-difluorobenzyl)-1-((3S,4R)-4-methyltetrahydrofuran-3-yl)-1H-benzo[d]imidazole-6-carboxylic acid]",0.069
11,"CC1(C)COC[C@H]1n1c(Cc2cc(F)c(-c3ccc(F)c(OCc4c(F)cccc4F)n3)cc2F)nc2ccc(C(=O)O)cc21 [Example 475, (S)-2-(4-(6-((2,6-difluorobenzyl)oxy)-5-fluoropyridin-2-yl)-2,5-difluorobenzyl)-1-(4,4-dimethyltetrahydrofuran-3-yl)-1H-benzo[d]imidazole-6-carboxylic acid]",0.601
12,"CC1(C)COC[C@H]1n1c(Cc2cc(F)c(-c3cccc(OCc4c(F)cccc4F)n3)cc2F)nc2ccc(C(=O)O)cc21 [Example 476, (S)-2-(4-(6-((2,6-difluorobenzyl)oxy)pyridin-2-yl)-2,5-difluorobenzyl)-1-(4,4-dimethyltetrahydrofuran-3-yl)-1H-benzo[d]imidazole-6-carboxylic acid]",0.614
13,"CC1(C)COC[C@H]1n1c(Cc2cc(F)c(-c3ccc(F)c(OCc4ccccc4F)n3)cc2F)nc2ccc(C(=O)O)cc21 [Example 477, (S)-2-(2,5-difluoro-4-(5-fluoro-6-((2-fluorobenzyl)oxy)pyridin-2-yl)benzyl)-1-(4,4-dimethyltetrahydrofuran-3-yl)-1H-benzo[d]imidazole-6-carboxylic acid]",0.171
14,"CC1(C)COC[C@H]1n1c(Cc2cc(F)c(-c3cccc(OCc4ccccc4F)n3)cc2F)nc2ccc(C(=O)O)cc21 [Example 478, (S)-2-(2,5-difluoro-4-(6-((2-fluorobenzyl)oxy)pyridin-2-yl)benzyl)-1-(4,4-dimethyltetrahydrofuran-3-yl)-1H-benzo[d]imidazole-6-carboxylic acid]",0.25
15,"CC1(C)COC[C@H]1n1c(Cc2c(F)cc(-c3ccc(F)c(OCc4ccc(C#N)cc4F)n3)c(F)c2F)nc2c(F)cc(C(=O)O)cc21 [Example 479, (S)-2-(4-(6-((4-cyano-2-fluorobenzyl)oxy)-5-fluoropyridin-2-yl)-2,3,6-trifluorobenzyl)-1-(4,4-dimethyltetrahydrofuran-3-yl)-4-fluoro-1H-benzo[d]imidazole-6-carboxylic acid]",0.249
16,"C[C@H]1COC[C@H]1n1c(Cc2cc(F)c(-c3ccc(F)c(OCc4ccc(C#N)cc4)n3)cc2F)nc2ccc(C(=O)O)cc21 [Example 480, 2-(4-(6-((4-cyanobenzyl)oxy)-5-fluoropyridin-2-yl)-2,5-difluorobenzyl)-1-((3S,4R)-4-methyltetrahydrofuran-3-yl)-1H-benzo[d]imidazole-6-carboxylic acid]",0.223
17,"C[C@H]1COC[C@H]1n1c(Cc2cc(F)c(-c3ccc(F)c(OCc4cc(F)c(C#N)cc4F)n3)cc2F)nc2ccc(C(=O)O)cc21 [Example 481, 2-(4-(6-((4-cyano-2,5-difluorobenzyl)oxy)-5-fluoropyridin-2-yl)-2,5-difluorobenzyl)-1-((3S,4R)-4-methyltetrahydrofuran-3-yl)-1H-benzo[d]imidazole-6-carboxylic acid]",0.883
18,"CC1(C)COC[C@H]1n1c(Cc2c(F)cc(-c3ccc(F)c(OCc4ccc(C#N)cc4F)n3)c(F)c2F)nc2ccc(C(=O)O)cc21 [Example 482, (S)-2-(4-(6-((4-cyano-2-fluorobenzyl)oxy)-5-fluoropyridin-2-yl)-2,3,6-trifluorobenzyl)-1-(4,4-dimethyltetrahydrofuran-3-yl)-1H-benzo[d]imidazole-6-carboxylic acid]",0.011
19,"CC1(C)COC[C@H]1n1c(Cc2cc(F)c(-c3ccc(F)c(OCc4cc(F)c(C#N)cc4F)n3)cc2F)nc2c(F)cc(C(=O)O)cc21 [Example 483, (S)-2-(4-(6-((4-cyano-2,5-difluorobenzyl)oxy)-5-fluoropyridin-2-yl)-2,5-difluorobenzyl)-1-(4,4-dimethyltetrahydrofuran-3-yl)-4-fluoro-1H-benzo[d]imidazole-6-carboxylic acid]",0.022
20,"C[C@H]1COC[C@H]1n1c(Cc2cc(F)c(-c3ccnc(OCc4ccc(Cl)cc4F)n3)cc2F)nc2ccc(C(=O)O)cc21 [Example 484, 2-(4-(2-((4-chloro-2-fluorobenzyl)oxy)pyrimidin-4-yl)-2,5-difluorobenzyl)-1-((3S,4R)-4-methyltetrahydrofuran-3-yl)-1H-benzo[d]imidazole-6-carboxylic acid]",0.155
21,"COCCn1c(Cc2c(F)cc(-c3ccc(F)c(OCc4ccc(Cl)cc4F)n3)c(F)c2F)nc2c(F)cc(C(=O)O)cc21 [Example 485, 2-(4-(6-((4-chloro-2-fluorobenzyl)oxy)-5-fluoropyridin-2-yl)-2,3,6-trifluorobenzyl)-4-fluoro-1-(2-methoxyethyl)-1H-benzo[d]imidazole-6-carboxylic acid]",0.203
22,"C[C@H]1COC[C@H]1n1c(Cc2cc(F)c(-c3ccc(F)c(OCc4ccc(C#N)cc4F)n3)cc2F)nc2ccc(C(=O)O)cc21 [Example 486, 2-(4-(6-((4-cyano-2-fluorobenzyl)oxy)-5-fluoropyridin-2-yl)-2,5-difluorobenzyl)-1-((3S,4R)-4-methyltetrahydrofuran-3-yl)-1H-benzo[d]imidazole-6-carboxylic acid]",0.054
23,"CC1(C)COC[C@H]1n1c(Cc2cc(F)c(-c3cccc(OCc4cc(F)c(C#N)cc4F)n3)cc2F)nc2ccc(C(=O)O)cc21 [Example 487, (S)-2-(4-(6-((4-cyano-2,5-difluorobenzyl)oxy)pyridin-2-yl)-2,5-difluorobenzyl)-1-(4,4-dimethyltetrahydrofuran-3-yl)-1H-benzo[d]imidazole-6-carboxylic acid]",0.159
24,"CC1(C)COC[C@H]1n1c(Cc2cc(F)c(-c3cccc(OCc4ccc(Cl)c(F)c4F)n3)cc2F)nc2ccc(C(=O)O)cc21 [Example 488, (S)-2-(4-(6-((4-chloro-2,3-difluorobenzyl)oxy)pyridin-2-yl)-2,5-difluorobenzyl)-1-(4,4-dimethyltetrahydrofuran-3-yl)-1H-benzo[d]imidazole-6-carboxylic acid]",0.282
